Columns and labels:
[1] = Cytotoxicity against human DLD1 cells by Alamar blue assay; format: functional, cell-based; conditions: DLD-1
P388 = assay: Cytotoxicity against mouse P388 cells by Alamar blue assay; format: functional, cell-based
[2] = Antiinflammatory activity in human neutrophils assessed as inhibition of fMLP/CB-induced elastase release using MeO-Suc-Ala-Ala-Pro-Val-p-nitroanilide as substrate at 10 uM after 5 mins by […] analysis; format: functional; conditions: Neutrophil
[3] = Antiinflammatory activity in human neutrophils assessed as inhibition of fMLP/CB-induced elastase release using MeO-Suc-Ala-Ala-Pro-Val-p-nitroanilide as substrate after 5 mins by […] analysis; format: functional, cell-based; conditions: Neutrophil
A549 = assay: Cytotoxicity against human A549 cells by Alamar blue assay; format: functional, cell-based
K562 = assay: Cytotoxicity against human K562 cells by Alamar blue assay; format: functional, cell-based
[4] = Antiinflammatory activity in human neutrophils assessed as inhibition of fMLP/CB-induced superoxide anion generation at 10 uM after 5 mins by ferricytochrome c based spectrophotometric analysis; format: functional; conditions: Neutrophil
[5] = Antiinflammatory activity in human neutrophils assessed as inhibition of fMLP/CB-induced superoxide anion generation after 5 mins by ferricytochrome c based spectrophotometric analysis; format: functional, cell-based; conditions: Neutrophil
HT-29 = assay: Cytotoxicity against human HT-29 cells by Alamar blue assay; format: functional, cell-based

SMILES | IC50 [1] [µM] | IC50 (P388) [µM] | inhibition at 10 µM [2] [%] | IC50 [3] [µM] | IC50 (A549) [µM] | IC50 (K562) [µM] | inhibition at 10 µM [4] [%] | IC50 [5] [µM] | IC50 (HT-29) [µM]
CC(C)[C@@H](C)[C@@]1(C)C[C@@H]1[C@@H](C)[C@H]1CC[C@H]2[C@H]3[C@H]([C@H](O)C[C@]12C)[C@@]1(C)CC[C@H](O)CC1=C[C@@H]3O | > 40 | > 40 | 21.8 | > 10 | > 40 | > 40 | 11.1 | > 10 | > 40
CC(C)[C@@H](C)[C@@]1(C)C[C@@H]1[C@@H](C)[C@H]1CC[C@H]2[C@@H]3[C@@H](O)C=C4C[C@@H](O)CC[C@]4(C)[C@@]3(O)[C@H](O)C[C@]12C | > 40 | > 40 | 16.4 | > 10 | > 40 | > 40 | -5.97 | > 10 | > 40
CC(C)[C@@H](C)[C@H](C)C[C@@](C)(O)C1=CC[C@H]2[C@@H]3CC=C4C[C@@H](O)CC[C@]4(C)[C@H]3[C@H](O)C[C@]12C | > 40 | 14.8 | 114 | 4.4 | > 40 | 12.7 | 76.3 | 5.64 | 15.1
CC(C)[C@@H](C)[C@@]1(C)C[C@@H]1[C@@H](C)[C@H]1CC[C@H]2[C@H]3[C@H]([C@H](O)[C@H](O)[C@]12C)[C@@]1(C)CC[C@H](O)CC1=C[C@@H]3O | > 40 | 15.5 | – | – | > 40 | > 40 | – | – | > 40
COc1cccc2c1C(=O)c1c(O)c3c(c(O)c1C2=O)C[C@@](O)(C(=O)CO)C[C@@H]3O[C@H]1C[C@H](N)[C@H](O)[C@H](C)O1 [DOXORUBICIN] | 2.78 | 0.9 | – | – | 0.55 | 0.94 | – | – | 0.87
O=c1cc(N2CCOCC2)oc2c(-c3ccccc3)cccc12 [LY-294002] | – | – | – | 5.15 | – | – | – | 3.65 | –
